Data: the supplement of paper PMC4932681

Experiments:
BT-474 Tam1 [1] = experiment: drug sensitivity score (DSS) (DSS (dimensionless)); higher = more sensitive; extreme values may be limits of the assay; settings: 4-OH-tamoxifen in medium 1 µM; 72 h
Method in brief: (§1)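 After seeding into 384-well plates with library drugs at five concentrations spanning a 10 000-fold range, breast cancer cell lines and their resistant derivatives were incubated 72 h at 37 °C. Resistant lines received medium with 1 μM of the selecting drug. CellTiter-Glo signal was read on a PHERAstar and scaled to vehicle-only and positive controls. Drug sensitivity score, relative IC50 (the curve midpoint) and top-dose inhibition came from logistic fits run in the Breeze pipeline.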

BT-474 Tam2 [2] = experiment: as above; settings: 4-OH-tamoxifen in medium 1 µM; 72 h
Method in brief: as §1

BT-474 [3] = experiment: as above; settings: 72 h
Method in brief: as §1

MCF-7 Tam1 [4] = experiment: as above; settings: 4-OH-tamoxifen in medium 1 µM; 72 h
Method in brief: as §1

MCF-7 [5] = experiment: as above; settings: 72 h
Method in brief: as §1

T-47D Tam1 [6] = experiment: as above; settings: 4-OH-tamoxifen in medium 1 µM; 72 h
Method in brief: as §1

T-47D Tam2 [7] = experiment: as above; settings: 4-OH-tamoxifen in medium 1 µM; 72 h
Method in brief: as §1

T-47D [8] = experiment: as above; settings: 72 h
Method in brief: as §1

ZR-75-1 Tam1 [9] = experiment: as above; settings: 4-OH-tamoxifen in medium 1 µM; 72 h
Method in brief: as §1

ZR-75-1 Tam2 [10] = experiment: as above; settings: 4-OH-tamoxifen in medium 1 µM; 72 h
Method in brief: as §1

ZR-75-1 [11] = experiment: as above; settings: 72 h
Method in brief: as §1

BT-474 Tam1 [12] = experiment: relative IC50 (midpoint of fitted logistic curve, plateau may be below 50% inhibition; CellTiter-Glo viability); higher = less potent; settings: 4-OH-tamoxifen in medium 1 µM; 72 h
Method in brief: as §1

BT-474 Tam2 [13] = experiment: as above; settings: 4-OH-tamoxifen in medium 1 µM; 72 h
Method in brief: as §1

BT-474 [14] = experiment: as above; settings: 72 h
Method in brief: as §1

MCF-7 Tam1 [15] = experiment: as above; settings: 4-OH-tamoxifen in medium 1 µM; 72 h
Method in brief: as §1

MCF-7 [16] = experiment: as above; settings: 72 h
Method in brief: as §1

T-47D Tam1 [17] = experiment: as above; settings: 4-OH-tamoxifen in medium 1 µM; 72 h
Method in brief: as §1

T-47D Tam2 [18] = experiment: as above; settings: 4-OH-tamoxifen in medium 1 µM; 72 h
Method in brief: as §1

T-47D [19] = experiment: as above; settings: 72 h
Method in brief: as §1

ZR-75-1 Tam1 [20] = experiment: as above; settings: 4-OH-tamoxifen in medium 1 µM; 72 h
Method in brief: as §1

ZR-75-1 Tam2 [21] = experiment: as above; settings: 4-OH-tamoxifen in medium 1 µM; 72 h
Method in brief: as §1

ZR-75-1 [22] = experiment: as above; settings: 72 h
Method in brief: as §1

Compound	drug sensitivity score (BT-474 Tam1 [1])	drug sensitivity score (BT-474 Tam2 [2])	drug sensitivity score (BT-474 [3]; 4-OH-tamoxifen in medium 0 µM)	drug sensitivity score (BT-474 [3]; 4-OH-tamoxifen in medium 1 µM)	drug sensitivity score (MCF-7 Tam1 [4])	drug sensitivity score (MCF-7 [5]; 4-OH-tamoxifen in medium 0 µM)	drug sensitivity score (MCF-7 [5]; 4-OH-tamoxifen in medium 1 µM)	drug sensitivity score (T-47D Tam1 [6])	drug sensitivity score (T-47D Tam2 [7])	drug sensitivity score (T-47D [8]; 4-OH-tamoxifen in medium 0 µM)	drug sensitivity score (T-47D [8]; 4-OH-tamoxifen in medium 1 µM)	drug sensitivity score (ZR-75-1 Tam1 [9])	drug sensitivity score (ZR-75-1 Tam2 [10])	drug sensitivity score (ZR-75-1 [11]; 4-OH-tamoxifen in medium 0 µM)	drug sensitivity score (ZR-75-1 [11]; 4-OH-tamoxifen in medium 1 µM)	relative IC50 (BT-474 Tam1 [12])	relative IC50 (BT-474 Tam2 [13])	relative IC50 (BT-474 [14]; 4-OH-tamoxifen in medium 0 µM)	relative IC50 (BT-474 [14]; 4-OH-tamoxifen in medium 1 µM)	relative IC50 (MCF-7 Tam1 [15])	relative IC50 (MCF-7 [16]; 4-OH-tamoxifen in medium 0 µM)	relative IC50 (MCF-7 [16]; 4-OH-tamoxifen in medium 1 µM)	relative IC50 (T-47D Tam1 [17])	relative IC50 (T-47D Tam2 [18])	relative IC50 (T-47D [19]; 4-OH-tamoxifen in medium 0 µM)	relative IC50 (T-47D [19]; 4-OH-tamoxifen in medium 1 µM)	relative IC50 (ZR-75-1 Tam1 [20])	relative IC50 (ZR-75-1 Tam2 [21])	relative IC50 (ZR-75-1 [22]; 4-OH-tamoxifen in medium 0 µM)	relative IC50 (ZR-75-1 [22]; 4-OH-tamoxifen in medium 1 µM)
CC(C)n1nc(-c2ccc3oc(N)nc3c2)c2c(N)ncnc21 [INK128]	13.2	7.32	5.72	9.54	7.07	18.9	13.6	16.9	8.98	15.4	8.51	15.1	17.5	16.1	13.6	0.0209 µM	0.0302 µM	0.0275 µM	0.0471 µM	0.0114 µM	0.00736 µM	0.00762 µM	0.00291 µM	0.00749 µM	0.0116 µM	0.0119 µM	0.00481 µM	0.00649 µM	0.00613 µM	0.00656 µM
C[C@]1(c2nc3c(C(N)=O)cccc3[nH]2)CCCN1 [Veliparib  (ABT-888)]	0	0	0	0	0	0	0	0	0	0	0	0	0	0	0	> 10 µM	> 10 µM	> 10 µM	> 10 µM	> 10 µM	> 10 µM	> 10 µM	> 10 µM	> 10 µM	> 10 µM	> 10 µM	> 10 µM	> 10 µM	> 10 µM	> 10 µM
C[C@]12CC[C@H](O)CC1=CC[C@@H]1[C@@H]2CC[C@]2(C)C(c3cccnc3)=CC[C@@H]12 [Abiraterone (CB-7598)]	0	0	0	0	0	0	0	0	0	0	0	0	0	0	0	> 5 µM	> 5 µM	> 5 µM	> 5 µM	> 5 µM	> 5 µM	> 5 µM	> 5 µM	> 5 µM	> 5 µM	> 5 µM	> 5 µM	> 5 µM	> 5 µM	> 5 µM
C[C@]12CC[C@@H]3c4ccc(OC(=O)N(CCCl)CCCl)cc4CC[C@H]3[C@@H]1CC[C@@H]2O [Estramustine]	0	0	0	0	0	0	0	0	0	0	0	0	0	0	0	> 990 µM	> 990 µM	> 990 µM	> 990 µM	> 990 µM	> 990 µM	> 990 µM	> 990 µM	> 990 µM	> 990 µM	> 990 µM	> 990 µM	> 990 µM	> 990 µM	> 990 µM
O=P1(NCCCl)OCCCN1CCCl (centres undefined) [Ifosfamide]	0	0	0	0	0	0	0.24	0	0	0	0	0	0	0	0	> 10 µM	> 10 µM	> 10 µM	> 10 µM	> 10 µM	> 10 µM		> 10 µM	> 10 µM	> 10 µM	> 10 µM	> 10 µM	> 10 µM	> 10 µM	> 10 µM
O=C(O)CCCc1ccc(N(CCCl)CCCl)cc1 [Chlorambucil]	0	0	0	0	0	0	0	0	0	0	0	0	0	0	0	> 10 µM	> 10 µM	> 10 µM	> 10 µM	> 10 µM	> 10 µM	> 10 µM	> 10 µM	> 10 µM	> 10 µM	> 10 µM	> 10 µM	> 10 µM	> 10 µM	> 10 µM
C[C@@H](Oc1cc(-c2cnn(C3CCNCC3)c2)cnc1N)c1c(Cl)ccc(F)c1Cl [Crizotinib]	0	0	0	0	0	0	0	0	0	0	0	0	0	0	0	> 1 µM	> 1 µM	> 1 µM	> 1 µM	> 1 µM	> 1 µM	> 1 µM	> 1 µM	> 1 µM	> 1 µM	> 1 µM	> 1 µM	> 1 µM	> 1 µM	> 1 µM
